Data reported in the supplement of paper PMC10307832.

Experiments:
Assay in all cases: relative viability (nuclei count vs DMSO), 5 days (fraction); higher = more cells survive
Dinaciclib + Tozasertib = compound: CCc1cnn2c(NCc3ccc[n+]([O-])c3)cc(N3CCCC[C@H]3CCO)nc12 [Dinaciclib] + Cc1cc(Nc2cc(N3CCN(C)CC3)nc(Sc3ccc(NC(=O)C4CC4)cc3)n2)n[nH]1 [Tozasertib] (partner 0.1 µM)
Summary of the method: (§1)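 Lung cancer cell lines were seeded in 1536-well plates and dosed by pin tool the next day, with either a single drug or a fixed anchor-drug dose combined with five library-drug doses (not always all listed) spaced in √10 steps. Five days later, one step fixed the cells and stained their nuclei (final 0.05% Triton X-100, 1% formaldehyde, 1 ug/ml Hoechst), and nuclei were counted on 4× images. Relative viability is the nuclei count in treated wells divided by the count in vehicle wells, and each value is the median of duplicate plates.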

Dinaciclib + Navitoclax = compound: CCc1cnn2c(NCc3ccc[n+]([O-])c3)cc(N3CCCC[C@H]3CCO)nc12 [Dinaciclib] + CC1(C)CCC(c2ccc(Cl)cc2)=C(CN2CCN(c3ccc(C(=O)NS(=O)(=O)c4ccc(N[C@H](CCN5CCOCC5)CSc5ccccc5)c(S(=O)(=O)C(F)(F)F)c4)cc3)CC2)C1 [Navitoclax] (partner 0.5 µM)
Summary of the method: as §1

Dinaciclib + OSI-027 = compound: CCc1cnn2c(NCc3ccc[n+]([O-])c3)cc(N3CCCC[C@H]3CCO)nc12 [Dinaciclib] + COc1cccc2cc(-c3nc([C@H]4CC[C@H](C(=O)O)CC4)n4ncnc(N)c34)[nH]c12 [OSI-027] (partner 0.5 µM)
Summary of the method: as §1

Dinaciclib + Foretinib = compound: CCc1cnn2c(NCc3ccc[n+]([O-])c3)cc(N3CCCC[C@H]3CCO)nc12 [Dinaciclib] + COc1cc2c(Oc3ccc(NC(=O)C4(C(=O)Nc5ccc(F)cc5)CC4)cc3F)ccnc2cc1OCCCN1CCOCC1 [Foretinib] (partner 0.25 µM)
Summary of the method: as §1

Dinaciclib + Pemetrexed = compound: CCc1cnn2c(NCc3ccc[n+]([O-])c3)cc(N3CCCC[C@H]3CCO)nc12 [Dinaciclib] + Nc1nc2[nH]cc(CCc3ccc(C(=O)N[C@@H](CCC(=O)O)C(=O)O)cc3)c2c(=O)[nH]1 [Pemetrexed] (partner 0.2 µM)
Summary of the method: as §1

| Cell Line | relative viability (Dinaciclib + Tozasertib; first compound 0.009487 µM) | relative viability (Dinaciclib + Tozasertib; first compound 0.03 µM) | relative viability (Dinaciclib + Tozasertib; first compound 0.09487 µM) | relative viability (Dinaciclib + Tozasertib; first compound 0.3 µM) | relative viability (Dinaciclib + Navitoclax; first compound 0.009487 µM) | relative viability (Dinaciclib + Navitoclax; first compound 0.03 µM) | relative viability (Dinaciclib + Navitoclax; first compound 0.09487 µM) | relative viability (Dinaciclib + Navitoclax; first compound 0.3 µM) | relative viability (Dinaciclib + OSI-027; first compound 0.009487 µM) | relative viability (Dinaciclib + OSI-027; first compound 0.03 µM) | relative viability (Dinaciclib + OSI-027; first compound 0.09487 µM) | relative viability (Dinaciclib + OSI-027; first compound 0.3 µM) | relative viability (Dinaciclib + Foretinib; first compound 0.009487 µM) | relative viability (Dinaciclib + Foretinib; first compound 0.03 µM) | relative viability (Dinaciclib + Foretinib; first compound 0.09487 µM) | relative viability (Dinaciclib + Foretinib; first compound 0.3 µM) | relative viability (Dinaciclib + Pemetrexed; first compound 0.009487 µM) | relative viability (Dinaciclib + Pemetrexed; first compound 0.03 µM) | relative viability (Dinaciclib + Pemetrexed; first compound 0.09487 µM) | relative viability (Dinaciclib + Pemetrexed; first compound 0.3 µM) |
| --- | --- | --- | --- | --- | --- | --- | --- | --- | --- | --- | --- | --- | --- | --- | --- | --- | --- | --- | --- | --- |
| NCI-H1734 | 0.208 | 0.13 | 0.133 | 0.111 | 0.714 | 0.122 | 0.07 | 0.0846 | 0.471 | 0.13 | 0.11 | 0.116 | 0.803 | 0.164 | 0.132 | 0.129 | 0.417 | 0.147 | 0.149 | 0.136 |
| NCI-H1755 | 0.53 | 0.401 | 0.2 | 0.234 | 1.01 | 0.596 | 0.122 | 0.123 | 0.763 | 0.519 | 0.194 | 0.258 | 0.917 | 0.516 | 0.198 | 0.196 | 0.397 | 0.272 | 0.204 | 0.261 |
| NCI-H1793 | 0.284 | 0.13 | 0.131 | 0.103 | 0.42 | 0.17 | 0.139 | 0.134 | 0.268 | 0.13 | 0.107 | 0.123 | 0.344 | 0.171 | 0.141 | 0.143 | 0.63 | 0.139 | 0.142 | 0.13 |
| NCI-H1915 | 0.303 | 0.149 | 0.13 | 0.115 | 0.759 | 0.267 | 0.058 | 0.0578 | 0.525 | 0.169 | 0.156 | 0.138 | 0.731 | 0.193 | 0.124 | 0.173 | 0.471 | 0.439 | 0.11 | 0.0872 |
| NCI-H1944 | 0.233 | 0.134 | 0.132 | 0.127 | 1.19 | 0.67 | 0.177 | 0.169 | 0.413 | 0.156 | 0.139 | 0.141 | 0.892 | 0.191 | 0.152 | 0.134 | 0.712 | 0.119 | 0.14 | 0.136 |
| NCI-H1975 | 0.927 | 0.416 | 0.082 | 0.071 | 1.08 | 0.143 | 0.137 | 0.128 | 0.783 | 0.347 | 0.0912 | 0.0908 | 0.868 | 0.185 | 0.107 | 0.099 | 0.275 | 0.288 | 0.146 | 0.16 |
| NCI-H1993 | 0.505 | 0.623 | 0.595 | 0.565 | 0.799 | 0.499 | – | 0.562 | 0.538 | 0.57 | 0.625 | 0.6 | 0.922 | 0.584 | 0.65 | 0.544 | 0.592 | 0.452 | 0.484 | 0.427 |
| NCI-H2009 | 0.599 | 0.231 | 0.112 | 0.106 | 1.01 | 0.515 | 0.0255 | 0.031 | 0.528 | 0.0935 | 0.11 | 0.107 | 1.3 | 0.144 | 0.103 | 0.0969 | 0.977 | 0.459 | 0.0817 | 0.0842 |
| NCI-H2023 | 0.446 | 0.0768 | 0.0628 | 0.0577 | 0.929 | 0.0702 | 0.0635 | 0.0619 | 0.395 | 0.0919 | 0.052 | 0.067 | 0.948 | 0.0806 | 0.0663 | 0.0474 | 0.165 | 0.0899 | 0.0697 | 0.0581 |
| NCI-H2085 | 0.802 | 0.373 | 0.3 | 0.308 | 1.14 | 0.201 | 0.154 | 0.172 | 0.748 | 0.264 | 0.243 | 0.196 | 1.16 | 0.259 | 0.194 | 0.241 | 0.916 | 0.279 | 0.211 | 0.217 |
| NCI-H2087 | 0.222 | 0.0979 | 0.0821 | 0.0868 | 0.729 | 0.0652 | 0.0695 | 0.0583 | 0.529 | 0.0975 | 0.11 | 0.0895 | 0.93 | 0.118 | 0.0913 | 0.106 | 0.687 | 0.109 | 0.106 | 0.101 |
| NCI-H2126 | 0.799 | 0.218 | 0.222 | 0.19 | 0.868 | 0.607 | 0.221 | 0.197 | 0.784 | 0.381 | 0.251 | 0.204 | 1.08 | 0.803 | 0.194 | 0.312 | 0.695 | 0.495 | 0.198 | 0.192 |
| NCI-H2170 | 0.721 | 0.171 | 0.144 | 0.143 | 0.477 | 0.155 | 0.139 | 0.19 | 0.741 | 0.156 | 0.152 | 0.14 | 0.901 | 0.281 | 0.189 | 0.194 | 0.292 | 0.133 | 0.125 | 0.119 |
| NCI-H2228 | 0.333 | 0.137 | 0.0995 | 0.0912 | 0.882 | 0.174 | 0.0319 | 0.0438 | 0.522 | 0.167 | 0.0767 | 0.124 | 0.87 | 0.36 | 0.104 | 0.11 | 0.309 | 0.152 | 0.0897 | 0.0862 |
| NCI-H2347 | 0.425 | 0.17 | 0.138 | 0.174 | 0.779 | 0.167 | 0.143 | 0.143 | 0.437 | 0.204 | 0.144 | 0.151 | 0.824 | 0.248 | 0.298 | 0.261 | 0.459 | 0.319 | 0.228 | 0.224 |
